Assay results reported in US20250082652A1, “SIGNALLING-PATHWAY INHIBITOR COMBINATIONS FOR USE IN THE TREATMENT OF CANCER DISEASES” (UNIVERSITÄT ZU KÖLN, priority 2022, published 2025).

Legend:
Type in all cases: cell-based
[1] = system: human DLBCL cell line HBL1; assay: Cell viability (CellTiterGlo), IKK2 inhibitors with or without Nec1s and/or ABT-199, FIG. 3 G; conditions: 72 hrs; for synergistic killing of cancer cell lines (cell viability): ABT-199 combined with an IKK2 inhibitor (ML120B, BI605906 or PS1145), HBL1, FIG. 3
Procedure: (§1) Murine (A-F) and human (G) cell lines were treated with IKK2 inhibitors in the absence or presence of a RIPK1 inhibitor and/or a BCL-2 inhibitor as indicated. Cell viability was measured after 72 hrs using CellTiterGlo assay. The data points represent mean values of independent experiments. A. The murine cell line M108 was treated with the IKK2 inhibitors ML120B, BI605906 and PS1145 in the absence or presence of the RIPK1 inhibitor Nec1s (10 μM or 20 μM, as indicated) and/or the BCL-2 inhibitor ABT-199 (125 nM or 250 nM as indicated). B. The murine cell line M191 was treated with the IKK2 inhibitors ML120B, PS1145 and BI605906 in the absence or presence of the RIPK1 inhibitor Nec1s (10 μM or 20 μM, as indicated) and/or the BCL-2 inhibitor ABT-199 (125 nM or 250 nM as indicated). C. The murine cell line BSQ10 was treated with the IKK2 inhibitors ML120B, PS1145 and BI605906 in the absence or presence of the RIPK1 inhibitor Nec1s (10 μM or 20 μM, as indicated) and/or the BCL-2 inhibitor ABT-199 (125 nM or 250 nM as indicated). D. The murine cell line BSQ12.4 was treated with the IKK2 inhibitors ML120B, PS1145 and BI605906 in the absence or presence of the RIPK1 inhibitor Nec1s (10 μM or 20 μM, as indicated) and/or the BCL-2 inhibitor ABT-199 (125 nM or 250 nM as indicated). E. The murine cell line BSQ27 was treated with the IKK2 inhibitors ML120B, PS1145 and BI605906 in the absence or presence of the RIPK1 inhibitor Nec1s (10 μM or 20 μM, as indicated) and/or the BCL-2 inhibitor ABT-199 (125 nM or 250 nM as indicated). F. The murine cell line BWQ89.3 was treated with the IKK2 inhibitors ML120B, PS1145 and BI605906 in the absence or presence of the RIPK1 inhibitor Nec1s (10 μM or 20 μM, as indicated) and/or the BCL-2 inhibitor ABT-199 (125 nM or 250 nM as indicated). G. The human cell line HBL1 was treated with the IKK2 inhibitors ML120B, PS1145 and BI605906 in the absence or presence of the RIPK1 inhibitor Nec1s (10 μM or 20 μM, as indicated) and/or the BCL-2 inhibitor ABT-199 (125 nM or 250 nM as indicated).
Murine cell lines (FIG. 3 A-F) were cultured in DMEM media (Gibco) containing 10% FCS, 1% penicillin/[…] (Gibco), 6 ml L-glutamine (200 mM, Gibco), 6 ml sodium pyruvate (100 mM, Gibco), 6 ml HEPES (1 M), 6 ml non-essential amino acids (100×, Gibco), and 50 μM 2-mercaptoethanol. Cells were plated in opaque 384-well plates at a density of 100.000 cells/ml (30 μl of culture volume) and treated with the indicated compounds dissolved in DMSO using a Tecan D300e digital dispenser. The human DLBCL cell line HBL1 (FIG. 3 G) was cultured in RPMI (Gibco) containing 20% FCS (Gibco) and 1% penicillin/[…] (Gibco) and treated with the indicated compounds dissolved in DMSO using a Tecan D300e digital dispenser. Cell viability of murine and human cell lines was measured after 72 hrs using CellTiterGlo assay. The data points represent mean values of independent experiments.

[2] = system: murine MBC cell lines M-108, M-191, and M-552; assay: Cell viability (CellTiter-Glo), ABT-199 and/or ML120B; conditions: ABT-199 combined with ML120B, 72 hours, M108, M191 and M552, FIG. 2
Procedure: The murine MBC lines M-191, M-190, M-108 and M-552 were treated with ABT-199 and/or IKK2-inhibitor ML120B at the indicated doses for 72 hours and cell viability was measured by CellTiter-Glo®. The illustrations in FIG. 2 represent two independent experiments. To test the pharmacological inhibition potential of IKK2 and BCL-2 to kill lymphoma cells, MBC M-191, M-190, M-108, and M-552 cell lines were cultured in DMEM media (Gibco) containing 10% FCS, 1% penicillin/[…] (Gibco), 6 ml L-glutamine (200 mM, Gibco), 6 ml sodium pyruvate (100 mM, Gibco), 6 ml HEPES (1 M), 6 ml non-essential amino acids (100×, Gibco), 50 μM 2-mercaptoethanol. Then, cell viability assays were used to test the pharmacological inhibition potential of IKK2 (using the inhibitor LY2409881) and BCL-2 (using the inhibitor ABT-199) to kill the MBC M-191, M-190, M-108, and M-552 cell lines. […] After an incubation time of 15 minutes, the luminescence signal was read on a plate reader (Tecan). All conditions were measured in triplicate, randomized across the plate and the DMSO concentration in each well was adjusted to maximum DMSO concentration (0.4%) in all wells, and normalized to untreated conditions. […]

[3] = system: murine cancer cell lines M108, M191, BSQ10, BSQ12.4, BSQ27, BWQ89.3; assay: Cell viability (CellTiterGlo), IKK2 inhibitors with or without Nec1s and/or ABT-199, FIG. 3 A-F; conditions: 72 hrs; for synergistic killing of cancer cell lines (cell viability): ABT-199 combined with an IKK2 inhibitor (ML120B, BI605906 or PS1145), FIG. 3
Procedure: as §1
(§2) The murine MBC M-191, M-190, M-108, and M-552 cell lines were generated by adopting cells from murine Myd88p.L252P/wt;R26LSL.BCL2/wt;CD19Cre/wt tumors to cell culture conditions. BSQ10, BSQ12.4 and BSQ27 are stable cell lines generated from Cd79 bp.Y195H/wt;Myd88p.L252P/wt;R26LSL.BCL2/wt;CD19Cre/wt tumors. BWQ89.3 is a stable cell line derived from a murine Prdm1flox/flox;Myd88p.L252P/wt;R26LSL.BCL2/wt;CD19Cre/wt tumor. The MBC cell lines are derived from tumors spontaneously developing in mice that B cell-specifically express the Myd88 p.L252P mutation (the murine orthologue of the human p.L265P) from the endogenous locus in combination with a strong BCL2 overexpression derived from a Rosa26 knock-in allele. Both MYD88 mutations and BCL2 overexpression are frequently found in ABC-DLBCL and Myd88p.L252P/wt;R26LSL.BCL2/wt;CD19Cre/wt animals (abbreviated MBC) develop an ABC-DLBCL-like disease with high NF-kB activation (17).
Murine cell lines (FIG. 3 A-F) were cultured in DMEM media (Gibco) containing 10% FCS, 1% penicillin/[…] (Gibco), 6 ml L-glutamine (200 mM, Gibco), 6 ml sodium pyruvate (100 mM, Gibco), 6 ml HEPES (1 M), 6 ml non-essential amino acids (100×, Gibco), and 50 μM 2-mercaptoethanol. […] Cell viability of murine and human cell lines was measured after 72 hrs using CellTiterGlo assay. […]

[4] = system: MBC M-191, M-190, M-108, and M-552 cell lines (murine ABC-DLBCL cell lines); assay: Cell viability (CellTiter-Glo), single inhibitors; conditions: single agent, 72 hours, FIG. 1
Procedure: The murine MBC lines M-191, M-190, M-108 and M-552 were treated with (A) the IKK2 inhibitor LY-2409881 (0, 0.185, 0.556, 1.667, 5, 15 μM) or (B) the BCL-2 inhibitor ABT-199 (0, 11.1, 33.3, 100, 300 nM) for 72 hours and cell viability was measured by CellTiter-Glo®. The illustrations in FIG. 1 represent three independent experiments.
as §2, with “(17). […]” for “(17).”

[5] = system: IL-1β production by macrophages; assay: LPS-induced production of IL-1β by macrophages treated with IKK inhibitors; conditions: pharmacological RIPK1 inhibition

SMILES	synergistic killing of cancer cell lines (cell viability) [1]	synergistic killing of cancer cell lines (cell viability) [2]	synergistic killing of cancer cell lines (cell viability) [3]	also measured
CC1(C)CCC(CN2CCN(c3ccc(C(=O)NS(=O)(=O)c4ccc(NCC5CCOCC5)c([N+](=O)[O-])c4)c(Oc4cnc5[nH]ccc5c4)c3)CC2)=C(c2ccc(Cl)cc2)C1 [ABT-199]	synergize to potentiate killing	synergize to potentiate killing	synergize to potentiate killing	killing of lymphoma cells (cell viability) [4]: strong toxicity
CN1C(=O)C(Cc2c[nH]c3ccccc23)NC1=S (centres unmarked) [Necrostatin-1, 5-(1H-indol-3-ylmethyl)-3-methyl-2-thioxo-4-imidazolidinone]	–	–	–	LPS-induced production of IL-1β [5]: strongly diminishes
O=C(Nc1cc(Cl)cc2c1[nH]c1cnccc12)c1cccnc1 [PS1145]	synergize to potentiate killing	–	synergize to potentiate killing	–
CN1C(=O)NC(Cc2c[nH]c3c(Cl)cccc23)C1=O (centres unmarked) [Nec1s, 5-((7-chloro-1H-indol-3-yl)methyl)-3-methyl-2,4-imidazolidinedione]	–	–	–	effect of simultaneous RIPK1 inhibitor treatment on the synergizing killing effect of ABT-199 and IKK2 inhibitors ([1]; Nec1s 10 μM or 20 μM, HBL1): not prevented; effect of simultaneous RIPK1 inhibitor treatment on the synergizing killing effect of ABT-199 and IKK2 inhibitors ([3]; Nec1s 10 μM or 20 μM): not prevented
CCC(F)(F)c1cc(N2CCC(S(C)(=O)=O)CC2)nc2sc(C(N)=O)c(N)c12 [BI605906]	synergize to potentiate killing	–	synergize to potentiate killing	–
COc1c(Cl)cc2c([nH]c3cnccc32)c1NC(=O)c1cccnc1C [ML120B, N-(6-chloro-7-methoxy-9H-beta-carbolin-8-yl)-2-methylnicotinamide]	synergize to potentiate killing	synergize to potentiate killing	synergize to potentiate killing	–
